# Reference: PMC7355430, “Imunofan—RDKVYR Peptide—Stimulates Skin Cell Proliferation and Promotes Tissue Repair” (Molecules, 2020)
# Peptide text beside a SMILES is read from it.
# How the values were obtained:
# [1] = Stability in human plasma; assay type: in vitro ADME; conditions: human plasma (EDTA)
# Method: A stability test in plasma was performed as previously described. Blood was collected from healthy anonymous donors and EDTA was then used as an anticoagulant. The plasma was aliquoted and incubated with IM peptide for 1, 2, 3, 6, and 24 h at 37 °C, at a final concentration of 300 µM. The analyses were performed by HPLC applying the conditions specified above.
# For calculations, peak areas were compared to a calibration curve calculated by LC solution Software (Shimadzu, Kyoto, Japan).
# 46BR.1N fibroblasts = assay: LDH cytotoxicity assay; assay type: cell-based, human; conditions: 50–150 µg/mL, 48 h, serum-free medium; n=16 (Figure S5)
# Method: (§1) Cell death was quantified by measurement of lactate dehydrogenase activity in cell culture supernatants (Takara, Japan, cat. No. MK401), following the manufacturer’s instructions. Cells were seeded into 96-well plates (BD, cat.no. 353872), at a density of 5000 cells per well, in medium (DMEM) supplemented with 10% FBS. After 24 h, the medium was changed to serum-free medium containing appropriate concentrations of IM peptide. After 48 h of stimulation supernatants were collected for LDH analysis. Cell death was normalized with respect to untreated control (without IM). Non-IM treated cells were used as negative control (0%) and Triton-X 100 (1%) was used as the positive control for maximum LDH release (maximum cytotoxicity, 100%). The assay was performed to IM in concentrations of 50–150 µg/mL.
# HaCaT keratinocytes = assay: LDH cytotoxicity assay; assay type: cell-based, human; conditions: 50–150 µg/mL, 48 h, serum-free medium; n=16 (Figure S5)
# Method: as §1
# [2] = tested on: adipose-derived stem cells (ASCs); assay: LDH cytotoxicity assay; assay type: cell-based, human; conditions: 50–150 µg/mL, 48 h, serum-free medium; n=12 (Figure S5)
# Method: as §1
# [3] = tested on: primary cortical neural cultures; assay: Neural viability, CellTiterBlue assay; assay type: cell-based, Wistar rat; conditions: 1, 10, 100, 200 µM, 20 h, 37 °C; CellTiterBlue (Figure S6)
# Method: Neural viability assessments. Primary cortical neural cultures were obtained from E18.5 Wistar rat embryos. For this purpose, the rat was euthanized in a CO2 chamber. The cortex tissue was immediately excised from the brain, moved to a HBSS medium (diluted 10 × and supplemented with a penicilin/streptomycin mixture), and washed precisely. Afterwards, the tissue was trypsinized for 10 min at 37 °C, and homogenized gently. […] Neural viability was quantitatively examined by CellTiterBlue® (CTB) assay (Promega, G8080) after 20-hour long incubation of the cells at 37 °C in the CO2. […] Fluorescence intensity of the CTB reagent is measured spectrofluorymetrically (560ex/590em) and is proportional to the number of viable cells. No insult sample referred as a 100% viability control and the data from the insulted cells was quantified and presented relatively as mean ± SD. The data was analyzed by a Mann-Whitney test with p-value < 0.05 values considered statistically significant. […]
# Influence of Imunofan on neural viability. Influence of Imunofan on neural viability was assessed by exposing the cells to different peptide concentrations (1, 10, 100, 200 µM) for 20 h at 37 °C in a 5% CO2 chamber. […]
# dendritic cells (DC) = assay: Dendritic cell activation in PBMCs, flow cytometry; assay type: cell-based, human; conditions: 0.1 and 1.0 µg/mL, 48 h, active phenotype CD11+, CD80+, CD83+
# Method: Immunological tests were conducted on human peripheral blood mononuclear cells, isolated from “buffy coats” using a ficoll density gradient (Histopaque, Sigma-Aldrich, St. Louis, MO, USA). Buffy coats for were obtained from blood of healthy anonymous donors of the Regional Center of Blood Donation and Blood Therapy in Gdansk, Poland. After washing in PBS, erythrocyte lysis, and cell counting (cell counter, Bio-Rad), the PBMCs were seeded onto a 24-well culture plate at a density of 10^6 cells/1 mL of RPMI 1640 (Penicillin/Streptomycin, 10% FBS) per well. After cell resting for 24 h, cells were stimulated with IM peptide (0.1 µg/mL and 1.0 µg/mL) for the next 48 h under appropriate conditions (37 °C, 5% CO2). The untreated cells were used as a negative control, whereas cells stimulated with LPS (1 µg/mL) and PHA (2.5 µg/mL) were a positive control. After incubation, the PBMCs were collected, washed with PBS, counted and prepared for flow cytometry analysis. 10^4 cells/100 µl were stained with monoclonal, fluorochrome-conjugated antibodies (anti-CD3, -CD4, -CD8, -CD16, -CD56, -CD25, -CD69, -CD71, -HLA-DR, -CD11c, -CD80, and -CD83) and incubated for 30 min in RT in the dark. Stained cells were analyzed using a flow cytometer (LSRFortessa, BD, USA). All data are presented as percentages due to the application of hospital diagnostic laboratory standards for immune cells analyses.
smiles,measurement,setting,value
"CC(C)[C@H](NC(=O)[C@H](CCCCN)NC(=O)[C@H](CC(=O)O)NC(=O)[C@@H](N)CCCNC(=N)N)C(=O)N[C@@H](Cc1ccc(O)cc1)C(=O)N[C@@H](CCCNC(=N)N)C(=O)O [IM, H-Arg-Asp-Lys-Val-Tyr-Arg-OH] (H-RDKVYR-OH)",signal of the IM peptide in plasma after 1 h,"[1]; 300 µM, 37 °C, 1 h, albumins removed with ethanol and centrifugation, HPLC C18, PDA, n=3 (Figure S1)",no longer seen
same,signal of the IM peptide in plasma at time point 0 h,"[1]; mixture without incubation, whole sample preparation (ethanol, centrifugation), HPLC (Figure S2)",barely any signal of peptide
same,cytotoxicity (LDH release),46BR.1N fibroblasts,not cytotoxic
same,cytotoxicity (LDH release),HaCaT keratinocytes,not cytotoxic
same,cytotoxicity (LDH release),[2],not cytotoxic
same,toxicity to primary neural cells (viability),[3],not toxic
same,activation of dendritic cells,dendritic cells (DC),not activated
